Tests used:
Assay type in all cases: functional
Rattus norvegicus = species on record: Rattus norvegicus; assay: Thyroxine-like activity in rat by antigoiter assay relative to control
Staphylococcus aureus = assay: Antimicrobial activity against Staphylococcus aureus
Aspergillus niger = assay: Antimicrobial activity against Aspergillus niger

SMILES	Activity (Rattus norvegicus) [%]	log(activity) (Rattus norvegicus)	log(1/C) (Staphylococcus aureus)	also measured
CC(C)(C)c1cc(Oc2c(I)cc(C[C@H](N)C(=O)O)cc2I)ccc1O	120	2.08	–	–
Cc1cc(C[C@H](N)C(=O)O)cc(C)c1Oc1ccc(O)c(I)c1	5	0.7	–	–
CCCCCCCCCCCCCCCCCC[N+](C)(C)Cc1ccc2c(c1)OCO2	–	–	3.23	–
CCCCCCCCCC[N+](C)(C)Cc1ccccc1	–	–	2.79	–
N[C@@H](Cc1cc(I)c(Oc2cc(F)c(O)c(I)c2)c(I)c1)C(=O)O	28	1.45	–	–
CCCCCCCCCCCC[N+](C)(C)Cc1ccc(Cl)cc1	–	–	4.04	–
Cc1cc(O)c(C(C)(C)C)cc1Cl	–	–	–	log(1/C) (Aspergillus niger): 4.3
Cc1ccccc1O [ORTHOCRESOL]	–	–	–	log(1/C) (Aspergillus niger): 2.7
CCCCCCCCCCCCCC[N+](C)(C)Cc1ccccc1Cl	–	–	4.14	–
CCCCCCCCCCCCCCCCCC[N+](C)(C)Cc1ccccc1	–	–	3.34	–
CCCCCCCCCCCCCCCCCC[N+](C)(C)Cc1ccc(Cl)c(Cl)c1	–	–	3.11	–
CCCCCCCCCCCCCCCC[N+](C)(C)Cc1ccccc1 [CETALKONIUM]	–	–	3.92	–
CCCCCCCCCCCC[N+](C)(C)Cc1ccc(OC)c(OC)c1	–	–	3.71	–
CCCCCCCCCC[N+](C)(C)Cc1ccccc1Cl	–	–	3.41	–
CCCCCCCCCC[N+](C)(C)Cc1ccc2c(c1)OCO2	–	–	3.08	–
CCCCCCCCCCCC[N+](C)(C)Cc1ccc([N+](=O)[O-])cc1	–	–	4.2	–
CCCCCCCCCCCC[N+](C)(C)Cc1ccccc1Cl	–	–	4.14	–
CCCCCCCCCCCCCC[N+](C)(C)Cc1ccc(Cl)cc1Cl	–	–	4.28	–
CC(C)Cc1cc(Oc2c(I)cc(C[C@H](N)C(=O)O)cc2I)ccc1O	60	1.78	–	–
N[C@@H](Cc1cc(Br)c(Oc2ccc(O)c(Br)c2)c(Br)c1)C(=O)O	44	1.64	–	–
N[C@@H](Cc1cc(Br)c(Oc2cc(I)c(O)c(I)c2)c(Br)c1)C(=O)O	12.5	1.1	–	–
Cc1cc(Cl)ccc1O	–	–	–	log(1/C) (Aspergillus niger): 3.7
CCCCCCCCCCCCCCCC[N+](C)(C)Cc1ccc(Cl)c(Cl)c1	–	–	3.39	–
CCCCCCCCCCCCCCCC[N+](C)(C)Cc1ccc2c(c1)OCO2	–	–	4.2	–

SMILES	Activity (Rattus norvegicus) [%]	log(activity) (Rattus norvegicus)	log(1/C) (Staphylococcus aureus)	also measured
CCCCCCCC[N+](C)(C)Cc1ccc(Cl)cc1	–	–	2.6	–
CCCCCCCCCC[N+](C)(C)Cc1ccc([N+](=O)[O-])cc1	–	–	3.11	–
CCCCCCCCCCCC[N+](C)(C)Cc1ccc(Cl)c(Cl)c1	–	–	4.36	–
Cc1cc(O)cc(C)c1Cl [CHLOROXYLENOL]	–	–	–	log(1/C) (Aspergillus niger): 4.22
CC(C)c1ccccc1O	–	–	–	log(1/C) (Aspergillus niger): 3.35
Cc1cc(C[C@H](N)C(=O)O)cc(C)c1Oc1ccc(O)c(C(C)C)c1	18	1.26	–	–
CC(C)c1cc(Oc2c(I)cc(C[C@H](N)C(=O)O)cc2I)ccc1O	868	2.94	–	–
N[C@@H](Cc1cc(Br)c(Oc2ccc(O)c(I)c2)c(Br)c1)C(=O)O	130	2.11	–	–
CCCCCCCCCCCCCCCC[N+](C)(C)Cc1ccccc1Cl	–	–	3.74	–
CCCCCCCCCC[N+](C)(C)Cc1ccc(Cl)cc1Cl	–	–	3.65	–
Cc1ccc(C(C)(C)C)c(O)c1	–	–	–	log(1/C) (Aspergillus niger): 3.7
CCCCCCCCCC[N+](C)(C)Cc1ccc(Cl)c(Cl)c1	–	–	3.79	–
Cc1cc(C[C@H](N)C(=O)O)cc(I)c1Oc1ccc(O)c(I)c1	40	1.6	–	–
CCCCCCCC[N+](C)(C)Cc1ccc(Cl)cc1Cl	–	–	2.63	–
Oc1ccc(Cl)cc1-c1ccccc1	–	–	–	log(1/C) (Aspergillus niger): 4.52
N[C@@H](Cc1cc(I)c(Oc2ccc(O)c(F)c2)c(I)c1)C(=O)O	8	0.9	–	–
CCCCCCCCCCCCCCCCCC[N+](C)(C)Cc1ccc(Cl)cc1	–	–	3.17	–
N[C@@H](Cc1cc(I)c(Oc2ccc(O)c(Cl)c2)c(I)c1)C(=O)O	27	1.43	–	–
CC(C)c1cc(Oc2c(Br)cc(C[C@H](N)C(=O)O)cc2Br)ccc1O	450	2.65	–	–
CCCCCCCCCCCCCC[N+](C)(C)Cc1ccccc1 [MIRISTALKONIUM ION]	–	–	4.17	–
CCCCCCCCCCCCCC[N+](C)(C)Cc1ccc(OC)c(OC)c1	–	–	4.11	–
N[C@@H](Cc1cc(I)c(Oc2ccc(O)c(I)c2)c(I)c1)C(=O)O [LIOTHYRONINE]	545	2.74	–	–
Cc1cc(Oc2c(C)cc(C[C@H](N)C(=O)O)cc2C)cc(C)c1O	2	0.3	–	–
Cc1cc(O)ccc1Cl [CHLOROCRESOL]	–	–	–	log(1/C) (Aspergillus niger): 3.7
